Reference: US20160289745A1, “NUCLEIC ACID ASSAY FOR DIAGNOSING OR […] PATHOGEN INFECTION IN A BODILY FLUID FROM A SUBJECT TREATED WITH AN ANTI-[…]” (priority 2012, published 2016)

Assays:
[1] = system: MTC strain (Mycobacterium tuberculosis); assay: Drug susceptibility testing of the patient's MTC strain; assay type: cell-based
[2] = system: Mycobacterium tuberculosis Complex (MTC); conditions: human, in vivo

| SMILES | drug susceptibility testing result ([1]; MTC strain of patient 21) | drug susceptibility testing result ([1]; MTC strain of patient 23) | analysis of DNA in urine [2] |
| --- | --- | --- | --- |
| CCCc1cc(C(N)=S)ccn1 [Prothionamid] | resistance | resistance |  |
| Nc1ccc(C(=O)O)c(O)c1 [PAS, para-aminosalicylic acid] |  |  | negative |
| NNC(=O)c1ccncc1 [Isoniazid] | resistance | resistance |  |
| [H]/N=C(/N)N[C@H]1[C@H](O)[C@@H](O)[C@H](O[C@@H]2O[C@@H](C)[C@](O)(C=O)[C@H]2O[C@@H]2O[C@@H](CO)[C@H](O)[C@@H](O)[C@@H]2NC)[C@@H](N/C(N)=N\[H])[C@@H]1O [Streptomycin] | resistance | resistance |  |
